Data: patent publication US20250127790A1, “COMBINATION THERAPY USING VPS34 INHIBITORS” (Deciphera Pharmaceuticals, LLC, priority 2021, published 2025)

Assays:
YUMM 1.7 melanoma cells [1] = experiment: Cytokine secretion assay, combination with cGAMP, YUMM1.7 cells; type: cell-based, mouse; settings: 24 hours, 5 μM Compound 1 or 10 μM Compound 2, 10 mg/ml cGAMP
Procedure: (§1) YUMM1.7 cells were treated for 24 hours with DMSO or VPS34 inhibitors (5 μM Compound 1 or 10 μM Compound 2) in combination with 10 mg/ml STING agonist cGAMP (green bars). Cells were washed with PBS and RNA was isolated using the PureLink RNA kit (#12183018A, Thermo Fisher Scientific) according to the manufacturer's protocol. Genomic DNA was removed using DNA-binding columns (RNeasy plus kit, #74134, Qiagen) and/or DNase treatment (#12185010, Thermo Fisher Scientific). RNA was quantified using NanoDrop (Thermo Fisher Scientific) and 50 ng/μL RNA was used for cDNA synthesis with SuperScript IV VILO Master Mix (#11756050, Thermo Fisher Scientific). Quantitative RT-PCR (qRT-PCR) was run with diluted cDNA (1:25 or 1:12.5), PowerUp SYBR Green Master Mix (#A25741, Thermo Fisher Scientific), and 200 nM primers (see below) on a CFX Connect RT-PCR system (BioRad). Data was analyzed using the ΔΔCT method. Results are mean±SEM of three independent experiments.
(§2) Cell culture medium was centrifuged at 1600 rpm for 10 min at 4° C. and obtained supernatant stored at −80° C. Cytokine levels were quantified using following Meso Scale Discovery (MSD) assays: mouse U-PLEX RANTES/CCL5 (#K152A2K) and U-PLEX IP-10/CXCL10 (#K152UFK). Assays were run on the SECTOR Quickplex Imager and analyzed using Discovery Workbench version 4.0 (MSD).

YUMM 1.7 melanoma cells [2] = experiment: qRT-PCR, combination with cGAMP, YUMM1.7 cells; type: cell-based, Mouse; settings: 24 hours, 5 μM Compound 1 or 10 μM Compound 2, 10 mg/ml cGAMP
Procedure: as §1

[3] = system: CT26 colorectal cancer cells; experiment: Cytokine secretion assay, combination with cGAMP, CT26 cells; type: cell-based, mouse; settings: 24 hours, 5 μM Compound 1 or 10 μM Compound 2, 10 mg/mL cGAMP
Procedure: as §1, with “CT26” for “YUMM1.7”, “mg/mL” for “mg/ml”
as §2

4T1 breast cancer cells [4] = experiment: Cytokine secretion assay, combination with cGAMP, 4T1 cells; type: cell-based, mouse; settings: 24 hours, 5 μM Compound 1 or 10 μM Compound 2, 10 mg/ml cGAMP
Procedure: as §1, with “4T1” for “YUMM1.7”
as §2

[5] = system: CT26 colorectal cancer cells; experiment: qRT-PCR, combination with cGAMP, CT26 cells; type: cell-based, Mouse; settings: 24 hours, 5 μM Compound 1 or 10 μM Compound 2, 10 mg/mL cGAMP
Procedure: as §1, with “CT26” for “YUMM1.7”, “mg/mL” for “mg/ml”

4T1 breast cancer cells [6] = experiment: qRT-PCR, combination with cGAMP, 4T1 cells; type: cell-based, Mouse; settings: 24 hours, 5 μM Compound 1 or 10 μM Compound 2, 10 mg/ml cGAMP
Procedure: as §1, with “4T1” for “YUMM1.7”

Nc1nc2c(ncn2[C@@H]2O[C@@H]3COP(=O)(O)O[C@H]4[C@@H](O)[C@H](n5cnc6c(N)ncnc65)O[C@@H]4COP(=O)(O)O[C@@H]2[C@@H]3O)c(=O)[nH]1 [cGAMP, reference compound]
increased: CCL5 protein secretion (YUMM 1.7 melanoma cells [1]) | CXCL10 protein secretion (YUMM 1.7 melanoma cells [1]) | CCL5 mRNA expression (YUMM 1.7 melanoma cells [2]) | CXCL10 mRNA expression (YUMM 1.7 melanoma cells [2]) | CCL5 protein secretion [3] | CXCL10 protein secretion [3] | CCL5 protein secretion (4T1 breast cancer cells [4]) | CXCL10 protein secretion (4T1 breast cancer cells [4]) | CCL5 mRNA expression [5] | CXCL10 mRNA expression [5] | CCL5 mRNA expression (4T1 breast cancer cells [6]) | CXCL10 mRNA expression (4T1 breast cancer cells [6])
